Like-named read-outs stand apart in the source and are kept apart here.
Key:
Mycobacterium b. = assay: Specificity versus non-viral pathogens: Mycobacterium b.; format: cell-based
[1] = tested on: SIV (simian immunodeficiency virus); assay: Antiviral cellular assay, SIV; format: cell-based; details: read-out: pEC50 towards SIV (converted)
[2] = tested on: wild type laboratory HIV strain (HIV-1 strain LAI); assay: Antiviral cellular assay (MT4 cells, MTT), wild type; format: cell-based
Experimental: The compounds of the present invention were examined for anti-viral activity in a cellular assay. […] The cellular assay was performed according to the following procedure.
(§1) HIV- or mock-infected MT4 cells were incubated for five days in the presence of various concentrations of the inhibitor. At the end of the incubation period, the replicating virus in the control cultures has killed all HIV-infected cells in the absence of any inhibitor. Cell viability was determined by measuring the concentration of MTT, a yellow, water soluble tetrazolium dye that is converted to a purple, water insoluble formazan in the mitochondrial of living cells only. Upon solubilization of the resulting formazan crystals with isopropanol, the absorbance of the solution was monitored at 540 nm. The values correlate directly to the number of living cells remaining in the culture at the completion of the five day incubation. The inhibitory activity of the compound was monitored on the virus-infected cells and was expressed as EC50 and EC90. These values represent the amount of the compound required to protect 50% and 90%, respectively, of the cells from the cytopathogenic effect of the virus. The toxicity of the compound was measured on the mock-infected cells and was expressed as CC50, which represents the concentration of compound required to inhibit the growth of the cells by 50%. The selectivity index (SI) (ratio CC50/EC50) is an indication of the selectivity of the anti-HIV activity of the inhibitor. Wherever results are reported as e.g. pEC50 or pCC50 values, the result is expressed as the negative logarithm of the result expressed as EC50 or CC50 respectively.

[3] = tested on: HIV strain G (V106A, F227L); assay: Antiviral cellular assay, mutant strain G; format: cell-based; details: for fold resistance, mutant G: EC50 mutant / EC50 wild type, rounded to nearest integer; for EC50: Human immunodeficiency virus 1, read-out: pEC50 towards mutant G (converted)
Experimental: as §1
(§2) Because of the increasing emergence of drug resistant HIV strains, the present compounds were also tested for their potency against clinically isolated HIV strains harbouring several mutations (Tables 1 and 7). These mutations are associated with resistance to reverse transcriptase inhibitors and result in viruses that show various degrees of phenotypic cross-resistance to the currently commercially available drugs such as for instance AZT, didanosine, nevirapine, lamivudine and zalcibatine.

[4] = tested on: HIV strain K (multi-mutant incl. M41L, D67N, K103N, Y181C, L210W, T215Y); assay: Antiviral cellular assay, mutant strain K; format: cell-based; details: for fold resistance, mutant K: EC50 mutant / EC50 wild type, rounded to nearest integer; for EC50: Human immunodeficiency virus 1, read-out: pEC50 towards mutant K (converted)
Experimental: as §1, §2

HIV strain B (K103N) = assay: Antiviral cellular assay, mutant strain B; format: cell-based; details: for fold resistance, mutant B: EC50 mutant / EC50 wild type, rounded to nearest integer; for EC50: Human immunodeficiency virus 1, read-out: pEC50 towards mutant B (converted)
Experimental: as §1, §2

HIV strain E (F227C) = assay: Antiviral cellular assay, mutant strain E; format: cell-based; details: for fold resistance, mutant E: EC50 mutant / EC50 wild type, rounded to nearest integer; for EC50: Human immunodeficiency virus 1, read-out: pEC50 towards mutant E (converted)
Experimental: as §1, §2

Trypanosoma b. = assay: Specificity versus non-viral pathogens: Trypanosoma b.; format: cell-based
Plasmodium f. = assay: Specificity versus non-viral pathogens: Plasmodium f.; format: cell-based
[5] = tested on: HIV strain J (I31L, L100I, K103N, E138G, Y181C, L214F); assay: Antiviral cellular assay, mutant strain J; format: cell-based; details: for fold resistance, mutant J: EC50 mutant / EC50 wild type, rounded to nearest integer; for EC50: Human immunodeficiency virus 1, read-out: pEC50 towards mutant J (converted)
Experimental: as §1, §2

[6] = tested on: HIV strain I (K101E, K103N); assay: Antiviral cellular assay, mutant strain I; format: cell-based; details: for fold resistance, mutant I: EC50 mutant / EC50 wild type, rounded to nearest integer; for EC50: Human immunodeficiency virus 1, read-out: pEC50 towards mutant I (converted)
Experimental: as §1, §2

HIV strain F (Y188L) = assay: Antiviral cellular assay, mutant strain F; format: cell-based; details: for fold resistance, mutant F: EC50 mutant / EC50 wild type, rounded to nearest integer; for EC50: Human immunodeficiency virus 1, read-out: pEC50 towards mutant F (converted)
Experimental: as §1, §2

[7] = tested on: HIV strain H (K103N, Y181C); assay: Antiviral cellular assay, mutant strain H; format: cell-based; details: for fold resistance, mutant H: EC50 mutant / EC50 wild type, rounded to nearest integer; for EC50: Human immunodeficiency virus 1, read-out: pEC50 towards mutant H (converted)
Experimental: as §1, §2

HIV-2 = assay: Antiviral cellular assay, HIV-2; format: cell-based; details: Human immunodeficiency virus 2; read-out: pEC50 towards HIV-2 (converted)
Experimental: as §1, with “The toxicity of the compound was measured on the mock-infected cells and was expressed as CC50, which represents the concentration of compound required to inhibit the growth of the cells by 50%. The selectivity index (SI) (ratio CC50/EC50) is an indication of the selectivity of the anti-HIV activity of the inhibitor.” left out
(§3) Row WT: pEC50 against wild type HlV-LAI strain. The toxicity (Tox) is expressed as the pCC50 value as determined with mock transfected cells. ND means not determined.

[8] = tested on: HIV strain C (L100I; K103N); assay: Antiviral cellular assay, mutant strain C; format: cell-based; details: for fold resistance, mutant C: EC50 mutant / EC50 wild type, rounded to nearest integer; for EC50: Human immunodeficiency virus 1, read-out: pEC50 towards mutant C (converted)
Experimental: as §1, §2

Trypanosoma c. = assay: Specificity versus non-viral pathogens: Trypanosoma c.; format: cell-based
[9] = molecular target: T1, HIV reverse transcriptase (Human immunodeficiency virus type 1 group M subtype B, UniProt P04585); assay: In vitro inhibition of HIV reverse transcriptase (kit TRK 1022); format: biochemical; details: enzyme assay, no conversion to active metabolite needed
T1 construct: 5 μl HIV RT enzyme solution at a final enzyme activity of 15 mU per 50 μl reaction; purchased Amersham Life Sciences TRK 1022
Experimental: In vitro Inhibition of HIV Reverse Transcriptase The assay was run using kit TRK 1022 (Amersham Life Sciences) according to the manufacturer's instructions with slight modifications. Compounds were diluted in steps of ¼ in 100% DMSO and subsequently transferred to Medium A (1/50 dilution; medium A: RPMI 1640+10% FetalClone II+Gentamycin 20 mg/L). 25 μl of compound (in 2% DMSO in Medium A) or 25 μl of 2% DMSO in medium A was added to wells. To each well was added 25.5 μl master mix (master mix: 5 μl primer/template beads, 10 μl assay buffer, 0.5 μl tracer (3H-TTP), 5 μl HIV RT enzyme solution at a final enzyme activity of 15 mU per 50 μl reaction, 5 μl medium A). The plates were sealed, marked as radioactive and incubated during 4 hours at 37° C. Subsequently, 100 μl stop solution was added to each well (except R1). The radioactivity was counted in a TopCount.

in vitro = format: cell-based; details: human
Experimental: as §1, with “The toxicity of the compound was measured on the mock-infected cells and was expressed as CC50, which represents the concentration of compound required to inhibit the growth of the cells by 50%. The selectivity index (SI) (ratio CC50/EC50) is an indication of the selectivity of the anti-HIV activity of the inhibitor.” left out
as §3

[10] = tested on: HIV strain D (L100I;K103N); assay: Antiviral cellular assay, mutant strain D; format: cell-based; details: for fold resistance, mutant D: EC50 mutant / EC50 wild type, rounded to nearest integer; for EC50: Human immunodeficiency virus 1, read-out: pEC50 towards mutant D (converted)
Experimental: as §1, §2

HIV strain A (Y181C) = assay: Antiviral cellular assay, mutant strain A; format: cell-based; details: for fold resistance, mutant A: EC50 mutant / EC50 wild type, rounded to nearest integer; for EC50: Human immunodeficiency virus 1, read-out: pEC50 towards mutant A (converted)
Experimental: as §1, §2

[11] = Human immunodeficiency virus 1, WT, MT4 cells, read-out: pEC50 against wild type HIV-LAI strain (converted)

SMILES	EC50 [1] [nM]	EC50 [2, 11] [nM]	fold resistance, mutant G [3]	EC50 [3] [nM]	fold resistance, mutant K [4]	EC50 [4] [nM]	fold resistance, mutant B (HIV strain B (K103N))	EC50 (HIV strain B (K103N)) [nM]	fold resistance, mutant E (HIV strain E (F227C))	EC50 (HIV strain E (F227C)) [nM]	fold resistance, mutant J [5]	EC50 [5] [nM]	fold resistance, mutant I [6]	EC50 [6] [nM]	fold resistance, mutant F (HIV strain F (Y188L))	EC50 (HIV strain F (Y188L)) [nM]	fold resistance, mutant H [7]	EC50 [7] [nM]	EC50 (HIV-2) [nM]	fold resistance, mutant C [8]	other results
Cn1c2ccccc2c2c1cc(C#N)c(=O)n2-c1ccc([N+](=O)[O-])cc1 [Compound 2, 5-methyl-1-(4-nitro-phenyl)-2-oxo-2,5-dihydro-1H-pyrido[3,2-b]indole-3-carbonitrile]	316	25.1	(3)	63.1	(4)	100	(1)	31.6	(3)	63.1	(5)	126	(3)	63.1	(2)	39.8	(5)	126	251	(3)	EC50 (Mycobacterium b.): > 32000 nM; EC50 ([2]; Human immunodeficiency virus 1, MT4, read-out: EC50 value for wild-type HIV): < 100 nM; EC50 (Trypanosoma b.): > 32000 nM; EC50 (Plasmodium f.): > 32000 nM; EC50 [8]: 79.4 nM; EC50 (Trypanosoma c.): > 32000 nM; inhibition of HIV reverse transcriptase in vitro [9]: inhibits HIV reverse transcriptase in vitro; CC50 at 5 days (in vitro): > 32400 nM; fold resistance, mutant D [10]: (2); EC50 [10]: 50.1 nM; fold resistance, mutant A (HIV strain A (Y181C)): (4); EC50 (HIV strain A (Y181C)): 100 nM
N#Cc1cc2[nH]c3ccccc3c2n(-c2ccc([N+](=O)[O-])cc2)c1=O [Compound 1, 1-(4-nitro-phenyl)-2-oxo-2,5-dihydro-1H-pyrido[3,2-b]indole-3-carbonitrile]	7940	316	(2)	631	(1)	316	(4)	1260	(6)	2000	(5)	1580	(3)	794	(4)	1260	(5)	1580	6310	(8)	EC50 [8]: 2510 nM; CC50 at 5 days (in vitro): > 32400 nM; fold resistance, mutant D [10]: (3); EC50 [10]: 1000 nM; fold resistance, mutant A (HIV strain A (Y181C)): (8); EC50 (HIV strain A (Y181C)): 2510 nM

— US20070249655A1, “4-Substituted-1,5-Dihydro-Pyrido[3,2-B]Indol-2-Ones” (priority 2004, published 2007)
